In assay [1] the target is T1, biotinylated wild-type menin and MLL-AF9 fusion protein (menin/MLL binding) (Homo sapiens, UniProt O00255).
T1 construct: made in house; host or cells: menin: E. coli; MLL-AF9-FLAG: HEK293 cells, used as cleared lysate
T1 sequence (O00255 1-610): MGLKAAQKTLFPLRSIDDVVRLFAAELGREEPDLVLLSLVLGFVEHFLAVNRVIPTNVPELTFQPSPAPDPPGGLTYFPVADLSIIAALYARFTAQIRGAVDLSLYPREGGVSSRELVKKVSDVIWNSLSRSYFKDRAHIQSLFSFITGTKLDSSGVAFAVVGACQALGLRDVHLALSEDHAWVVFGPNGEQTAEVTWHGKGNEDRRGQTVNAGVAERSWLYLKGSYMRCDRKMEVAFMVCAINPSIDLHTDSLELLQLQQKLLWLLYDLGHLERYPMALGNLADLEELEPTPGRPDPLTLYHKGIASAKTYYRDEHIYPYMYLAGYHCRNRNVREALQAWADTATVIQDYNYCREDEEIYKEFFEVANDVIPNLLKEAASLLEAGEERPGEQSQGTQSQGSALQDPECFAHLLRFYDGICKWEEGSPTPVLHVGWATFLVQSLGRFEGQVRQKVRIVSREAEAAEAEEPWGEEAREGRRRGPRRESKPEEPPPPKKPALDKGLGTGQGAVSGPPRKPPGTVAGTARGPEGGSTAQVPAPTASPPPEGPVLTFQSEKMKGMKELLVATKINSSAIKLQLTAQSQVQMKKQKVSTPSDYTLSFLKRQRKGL
Description: Assay 1: menin/MLL binding AlphaLISA assay, wild-type menin. To be noted: Table 30; column head does not say wild-type or mutated menin. The method, boiled down:
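Compound was preincubated 30 min at room temperature with biotinylated menin (5 nM) and MLL-AF9-FLAG lysate from HEK293 cells, pH 7.4 buffer with 5% DMSO and DTT. Bead-based Alpha signal after 60 min with streptavidin donor and anti-FLAG acceptor beads; four-parameter logistic fit gave IC50.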
Background: Bead proximity is the source of the signal in Alpha formats.

In assay [2] the test system is human acute monocytic leukemia cell line MV-4-11. As to the kind of experiment: Assay 2: cell proliferation assay (ATP quantitation, CellTiter-Glo), MV-4-11. The class given is cell-based. To be noted: Homo sapiens, MV4-11, 72 h, MV-4-11 cells. An outline of the steps:
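Read-out is CellTiter-Glo luminescence quantifying ATP. Compound exposure lasted 72 h at 37° C., 5% CO2, with 1.67×10^4 MV-4-11 cells per well in 10% FBS medium, alongside HL-60 toxicity-control cells.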
(In general: In ATP-based viability assays light output follows the ATP content of the culture.)

The values below come from patent publication US12312359B2 (Vitae Pharmaceuticals, LLC, priority 2016, dated 2025).

SMILES strings stand for the structures.

In general, IC50 refers to the point on the concentration scale where inhibition reaches its midpoint. As usually defined, the EC50 is the concentration at which the effect is half-maximal. As to `CC(C)N(C)C(=O)c1cc(F)ccc1Oc1cncnc1N1CC2(CN(CC3CCCCC3)C2)C1` [Example 167, 2-((4-(6-(cyclohexylmethyl)-2,6-diazaspiro[3.3]heptan-2-yl)pyrimidin-5-yl)oxy)-5-fluoro-N-isopropyl-N-methylbenzamide], in assay [1], the IC50 was < 100 nM. The same compound returned an EC50 in assay [2] of 100 to 1000 nM.

In the case of `Fc1ccc(Oc2cncnc2N2CC3(CN(CC4CCOCC4)C3)C2)c(OC2CCCC2)c1` [Example 168, 2-(5-(2-(cyclopentyloxy)-4-fluorophenoxy)pyrimidin-4-yl)-6-((tetrahydro-2H-pyran-4-yl)methyl)-2,6-diazaspiro[3.3]heptane], the IC50 in assay [1] is < 100 nM. Further, the EC50 in assay [2] is ≥ 1000 nM.

`N#Cc1ccc(-c2cc(F)ccc2Oc2cncnc2N2CCC3(CCN(Cc4ccc5oc(=O)[nH]c5c4)C3)C2)c(C2CC2)c1` (stereo not shown) [Example 169, 2-cyclopropyl-5′-fluoro-2′-((4-(7-((2-oxo-2,3-dihydrobenzo[d]oxazol-5-yl)methyl)-2,7-diazaspiro[4.4]nonan-2-yl)pyrimidin-5-yl)oxy)-[1,1′-biphenyl]-4-carbonitrile]: in assay [1], the IC50 is < 100 nM. Besides, in assay [2], the EC50 was < 100 nM.

As for `COC(=O)Nc1cccc(CN2CCC3(CCN(c4ncncc4Oc4ccc(F)cc4-c4ccc(C#N)cc4C4CC4)C3)C2)c1` (stereo not shown) [Example 170, methyl (3-((7-(5-((4′-cyano-2′-cyclopropyl-5-fluoro-[1,1′-biphenyl]-2-yl)oxy)pyrimidin-4-yl)-2,7-diazaspiro[4.4]nonan-2-yl)methyl)phenyl) carbamate], the IC50 in assay [1] was < 100 nM. Besides, the EC50 in assay [2] lay within 100 to 1000 nM.

`N#Cc1ccc(-c2cc(F)ccc2Oc2cncnc2N2CCC3(CCN(Cc4ccc5nn[nH]c5c4)C3)C2)c(C2CC2)c1` (stereo not shown) [Example 171, 2′-((4-(7-((1H-benzo[d][1,2,3]triazol-6-yl)methyl)-2,7-diazaspiro[4.4]nonan-2-yl)pyrimidin-5-yl)oxy)-2-cyclopropyl-5′-fluoro-[1,1′-biphenyl]-4-carbonitrile]: in assay [1], the IC50 is < 100 nM. The EC50 in assay [2] is < 100 nM.

Turning to `CC(=O)Nc1ccc(CN2CCC3(CCN(c4ncncc4Oc4ccc(F)cc4-c4ccc(C#N)cc4C4CC4)C3)C2)cc1Cl` (stereo not shown) [Example 172, N-(2-chloro-4-((7-(5-((4′-cyano-2′-cyclopropyl-5-fluoro-[1,1′-biphenyl]-2-yl)oxy)pyrimidin-4-yl)-2,7-diazaspiro[4.4]nonan-2-yl)methyl)phenyl) acetamide], in assay [1], the IC50 is < 100 nM. The EC50 in assay [2] is 100 to 1000 nM.

Take `CCN(CC)C(=O)c1cc(F)ccc1Oc1cncnc1N1CCC2(CCN(Cc3ccc4[nH]c(=O)[nH]c4c3)C2)C1` (stereo not shown) [Example 173, N,N-diethyl-5-fluoro-2-((4-(7-((2-oxo-2,3-dihydro-1H-benzo[d]imidazol-5-yl)methyl)-2,7-diazaspiro[4.4]nonan-2-yl)pyrimidin-5-yl)oxy)benzamide]: the IC50 in assay [1] is < 100 nM. This compound also returned an EC50 in assay [2] of 100 to 1000 nM.

As to `CC(C)N(C)C(=O)c1cc(F)ccc1Oc1cncnc1N1CCC2(CCN(Cc3ccc4oc(=O)[nH]c4c3)C2)C1` (stereo not shown) [Example 174, 5-fluoro-N-isopropyl-N-methyl-2-((4-(7-((2-oxo-2,3-dihydrobenzo[d]oxazol-5-yl)methyl)-2,7-diazaspiro[4.4]nonan-2-yl)pyrimidin-5-yl)oxy)benzamide], in assay [1], the half-inhibitory concentration (IC50) is < 100 nM. The EC50 in assay [2] was < 100 nM.

For `CN(C(=O)c1cc(F)ccc1Oc1cncnc1N1CCC2(CCN(Cc3ccc4[nH]c(=O)[nH]c4c3)C2)C1)C(C)(C)C` (stereo not shown) [Example 175, N-(tert-butyl)-5-fluoro-N-methyl-2-((4-(7-((2-oxo-2,3-dihydro-1H-benzo[d]imidazol-5-yl)methyl)-2,7-diazaspiro[4.4]nonan-2-yl)pyrimidin-5-yl)oxy)benzamide], the IC50 in assay [1] is < 100 nM. For the same compound, the EC50 in assay [2] is ≥ 1000 nM.

As to `CC(C)c1ncncc1-c1cc(F)ccc1Oc1cncnc1N1CCC2(CCN(CC(C)(C)O)C2)C1` (stereo not shown) [Example 176, 1-(7-(5-(4-fluoro-2-(4-isopropylpyrimidin-5-yl)phenoxy)pyrimidin-4-yl)-2,7-diazaspiro[4.4]nonan-2-yl)-2-methylpropan-2-ol], the IC50 in assay [1] is < 100 nM. For the same compound, the EC50 in assay [2] was ≥ 1000 nM.

Take `Fc1ccc(Oc2cncnc2N2CC3(CN(CC4CCOCC4)C3)C2)c(-c2cccnc2C2CC2)c1` [Example 177, 2-(5-(2-(2-cyclopropylpyridin-3-yl)-4-fluorophenoxy)pyrimidin-4-yl)-6-((tetrahydro-2H-pyran-4-yl)methyl)-2,6-diazaspiro[3.3] heptane]: the IC50 in assay [1] is < 100 nM. The EC50 in assay [2] is < 100 nM.

As for `CC(C)c1ncncc1-c1cc(F)ccc1Oc1cncnc1N1CCC2(CCN(Cc3ccc4c(c3)NC(=O)C4(C)C)C2)C1` (stereo not shown) [Example 178, 6-((7-(5-(4-fluoro-2-(4-isopropylpyrimidin-5-yl)phenoxy)pyrimidin-4-yl)-2,7-diazaspiro[4.4]nonan-2-yl)methyl)-3,3-dimethylindolin-2-one], the concentration for half-maximal inhibition (IC50) in assay [1] was < 100 nM. Besides, the EC50 in assay [2] is < 100 nM.

On to `CC1(C)C(=O)Nc2cc(CN3CCC4(CCN(c5ncncc5Oc5ccc(F)cc5-c5cccnc5C5CC5)C4)C3)ccc21` (stereo not shown) [Example 179, 6-((7-(5-(2-(2-cyclopropylpyridin-3-yl)-4-fluorophenoxy)pyrimidin-4-yl)-2,7-diazaspiro[4.4]nonan-2-yl)methyl)-3,3-dimethylindolin-2-one], for which, in assay [1], the IC50 was < 100 nM. In addition, the EC50 in assay [2] is < 100 nM.

On to `O=c1[nH]c2ccc(CN3CCC4(CCN(c5ncncc5Oc5ccc(F)cc5-c5cccnc5C5CC5)C4)C3)cc2[nH]1` (stereo not shown) [Example 180, 5-((7-(5-(2-(2-cyclopropylpyridin-3-yl)-4-fluorophenoxy)pyrimidin-4-yl)-2,7-diazaspiro[4.4]nonan-2-yl)methyl)-1,3-dihydro-2H-benzo[d]imidazol-2-one], for which the IC50 in assay [1] is < 100 nM. Further, in assay [2], the concentration giving a half-maximal response (EC50) was < 100 nM.

Consider `CC(C)c1ncncc1-c1cc(F)ccc1Oc1cncnc1N1CC2(CC(N(C)Cc3ccc(C#N)cc3)CO2)C1` (stereo not shown) [Example 181, 4-(((2-(5-(4-fluoro-2-(4-isopropylpyrimidin-5-yl)phenoxy)pyrimidin-4-yl)-5-oxa-2-azaspiro[3.4]octan-7-yl)(methyl)amino)methyl)benzonitrile], for which the IC50 in assay [1] is < 100 nM. Further, the EC50 in assay [2] is 100 to 1000 nM.

Take `CC1(C)C(=O)Nc2cc(CN3CCC4(CCN(c5ncncc5Oc5ccc(F)cc5OCC(F)(F)F)C4)C3)ccc21` (stereo not shown) [Example 182, 6-((7-(5-(4-fluoro-2-(2,2,2-trifluoroethoxy)phenoxy)pyrimidin-4-yl)-2,7-diazaspiro[4.4]nonan-2-yl)methyl)-3,3-dimethylindolin-2-one]: in assay [1], the IC50 was < 100 nM. The EC50 in assay [2] is 100 to 1000 nM.

Regarding `CC(C)N(C)C(=O)c1cc(F)ccc1Oc1cncnc1N1CCC2(CCN(Cc3ccc4[nH]c(=O)[nH]c4c3)C2)C1` (stereo not shown) [Example 183, 5-fluoro-N-isopropyl-N-methyl-2-((4-(7-((2-oxo-2,3-dihydro-1H-benzo[d]imidazol-5-yl)methyl)-2,7-diazaspiro[4.4]nonan-2-yl)pyrimidin-5-yl)oxy)benzamide], the IC50 in assay [1] was < 100 nM. In addition, the EC50 in assay [2] was < 100 nM.
